Assay results taken from patent US20100204145A1, “USE OF A PEPTIDE AS A THERAPEUTIC AGENT” (priority 2007, published 2010).
Ends that are not written are not given here.

Assays:
HIV-1IIIB = experiment: HIV-1 antiviral assay in CEM-SS cells (MTS readout); assay type: cell-based; conditions: positive controls
Interferon-γ (IFN-γ) = experiment: Th1/Th2 cytokine profiling assay, IFN-γ; assay type: cell-based; conditions: 10 micrograms per ml; Ovalbumin-restimulated spleen cells of immunized Balb/c mice; 72 hours
Description: (§1) The Balb/c mice (originated in 1923, it is a popular strain and is used in many different research disciplines. Also classified as an inbred from the production of 20 or more successive brother-sister matings, the Balb/c mouse is albino and small in size) were immunized on Days 1, 15, and 29 with Ovalbumin (Ovalbumin is the main protein found in egg white, commonly used to stimulate an immunological reaction in test animals) in PBS (5 micrograms/injection). On day 50, spleens of the mice were harvested (3 weeks after last boost with Ovalbumin). […] Thereafter, additional Ovalbumin was added to the cells at 10 micrograms/ml for in vitro restimulation of the cells. 72 hours later, cell supernatants were harvested and assayed using the Becton Dickinson Mouse Th1/Th2 Cytokine CBA Kit.

[1] = system: Tumor Necrosis Factor-α (TNF-α); experiment: Th1/Th2 cytokine profiling assay, TNF-α; assay type: cell-based; conditions: 10 micrograms per ml; Ovalbumin-restimulated spleen cells of immunized Balb/c mice; 72 hours
Description: as §1

Interleukin-2 (IL-2) = experiment: Th1/Th2 cytokine profiling assay, IL-2; assay type: cell-based; conditions: 10 micrograms per ml; Ovalbumin-restimulated spleen cells of immunized Balb/c mice; 72 hours
Description: (§2) The Balb/c mice (originated in 1923, it is a popular strain and is used in many different research disciplines. Also classified as an inbred from the production of 20 or more successive brother-sister matings, the Balb/c mouse is albino and small in size) were immunized on Days 1, 15, and 29 with Ovalbumin (Ovalbumin is the main protein found in egg white, commonly used to stimulate an immunological reaction in test animals) in PBS (5 micrograms/injection). On day 50, spleens of the mice were harvested (3 weeks after last boost with Ovalbumin). […] Thereafter, additional Ovalbumin was added to the cells at 10 micrograms/ml for in vitro restimulation of the cells. 72 hours later, cell supernatants were harvested and assayed using the Becton Dickinson Mouse Th1/Th2 Cytokine CBA Kit. This kit can be used to measure Interleukin-2 (IL-2), Interleukin-4 (IL-4), Interleukin-5 (IL-5), Interferon-γ (IFN-γ), and Tumor Necrosis Factor-α (TNF-α) protein levels in a single sample. The kit performance has been optimized for analysis of physiologically relevant concentrations (μg/ml levels) of specific cytokine proteins in tissue culture supernatants and serum samples.

RAW 264.7 cells = experiment: Phagocytosis assay (Fluorescein-labeled Escherichia coli, flow cytometry); assay type: cell-based, Mouse; conditions: 10 micrograms per ml, combination peptide 1:peptide 2 1.10 mole:0.90 mole
Interleukin-4 (IL-4) = experiment: Th1/Th2 cytokine profiling assay, IL-4; assay type: cell-based; conditions: 10 micrograms per ml; Ovalbumin-restimulated spleen cells of immunized Balb/c mice; 72 hours
Description: as §2

Interleukin-5 (IL-5) = experiment: Th1/Th2 cytokine profiling assay, IL-5; assay type: cell-based; conditions: 10 micrograms per ml; Ovalbumin-restimulated spleen cells of immunized Balb/c mice; 72 hours
Description: as §2

Human A549 cells = experiment: Apoptosis prevention assay (C2 ceramide, Annexin-5); assay type: cell-based; conditions: 10 micrograms per ml, 30 min pretreatment, then C2 ceramide

| Molecule | antiviral activity of positive control compounds (HIV-1) (HIV-1IIIB) | IFNγ spleen cells; TH1 response (% of control) (Interferon-γ (IFN-γ)) | TNF-a spleen cells; TH1 response (% of control) [1] | IL-2 spleen cells (% of control) (Interleukin-2 (IL-2)) | increase on the phagocytic activity of murine macrophages (RAW 264.7 cells) [%] | IL-4 spleen cells; TH2 response (% of control) (Interleukin-4 (IL-4)) | IL-5 spleen cells; TH2 response (% of control) (Interleukin-5 (IL-5)) | prevention (reduction) of ceramide-induced apoptosis on human lung cells (Human A549 cells) [%] |
| --- | --- | --- | --- | --- | --- | --- | --- | --- |
| Cc1cn([C@H]2C[C@H](N=[N+]=[N-])[C@@H](CO)O2)c(=O)[nH]c1=O [AZT] | expected levels of antiviral activity | – | – | – | – | – | – | – |
| Tyr-Gly-Gly-Phe-Leu-Arg-Arg-OH (YGGFLRR-OH) [peptide 2] | – | 126.8 % of control | 90.3 % of control | 93.8 % of control | 25.7 | 81.2 % of control | 66.0 % of control | 11.5 |
| CCNC(=O)[C@@H]1CCCN1C(=O)[C@H](CCCNC(=N)N)NC(=O)[C@H](CC(C)C)NC(=O)[C@@H](COC(C)(C)C)NC(=O)[C@H](Cc1ccc(O)cc1)NC(=O)[C@H](CO)NC(=O)[C@H](Cc1c[nH]c2ccccc12)NC(=O)[C@H](Cc1cnc[nH]1)NC(=O)[C@@H]1CCC(=O)N1 [peptide 1, Pyr-His-Trp-Ser-Tyr-D-Ser(tBu)-Leu-Arg-Pro-NHEt] | – | 76.6 % of control | 121.2 % of control | 175.3 % of control | 31.4 | 131.6 % of control | 80.4 % of control | 26.4 |
| CC(C)(C)NC(=O)[C@@H]1CN(Cc2cccnc2)CCN1C[C@@H](O)C[C@@H](Cc1ccccc1)C(=O)N[C@H]1c2ccccc2C[C@H]1O [indinavir] | expected levels of antiviral activity | – | – | – | – | – | – | – |
